Results on 25 compounds are retold here after patent publication US5169852A, “Method of suppressing appetite by administration of tetrahydro-beta-carboline derivatives” (priority 1990, dated 1992).

Data set [1] is described as follows: Reduction of food intake in fasted rats, intraperitoneal (IC50 from dose-response curve). It is filed as in vivo, rat. The note with it: ip.
From the text: The measured food intake was plotted as a function of the natural logarithm of the drug concentration (ln(Dose)) given to the animal for each of the compounds listed above. A dose response curve of the functional form: Intake =α+(1-α)/[1+exp(β- ln(Dose))]was fit to each of the data sets using the NONLIN feature of the Systat™ statistical analysis software package for the Macintosh™ (Systat, Evanston, Il).
A short description of data set [2]: Partial appetite suppression: food intake over one hour vs dose (FIG. 5). The data set is classed as in vivo. The note with it: rat. On the procedure:
Adult male rats weighing between 250 and 300 g were acclimated to laboratory conditions for a period of 4-5 days, during which they were allowed unrestricted access to food (Ralston-Purina #5001M) and water. All animals were housed in individual cages. The animal facility was maintained on a 12:12 hr light-dark schedule at 22° C.
Fasted animals were sorted into groups of 10-12 each by weight and baseline food intake. Each was then given saline containing 0-32 mg/Kg of a compound of the invention (or THBC) by intraperitoneal injection. After 20 minutes, animals were allowed access to food and water. Cumulative food intake was measured at 1 hour post-injection.
Reduction in food intake over one hour was measured against the dose per unit body weight for THBC and compound 14. The results are shown in FIG. 5A, which compares compound 14 with THBC.

The test system of the next data set is benzodiazepine receptors. The settings on record: Skolnick; Robertson; cited from earlier work.
In data set [3] the test system is brain imipramine binding sites. The settings on record: cited from earlier work.
Data set [4] deals with brain 5-hydroxytryptamine (5-HT) binding sites. The note with it: cited from earlier work.
The subject of data set [5] is 5-HT oxidative deamination. The note with it: cited from earlier work.
For data set [6], the system named is brain tryptamine binding sites. The settings on record: cited from earlier work.
The test system of another data set is 5-HT uptake. The note with it: brain synaptosomes; cited from earlier work.
The conditions of data set [7]: cited from earlier work.
Data set [8] has as its system brain spiperone binding sites. The note with it: cited from earlier work.
For a further data set, the system named is 5 HT efflux. The settings on record: brain slices; cited from earlier work.
The conditions of data set [9]: rats; cited from earlier work.
For data set [10] the following is noted: systemic, rodents; cited from earlier work.
The conditions of data set [11]: parenteral, rats; cited from earlier work.
The conditions of data set [12]: cited from earlier work. The source holds these as a separate data set.
The conditions of data set [13]: cited from earlier work; for effect on feeding (hyperphagic / anorectic): S. Cooper.
For data set [14] the following is noted: human, in vivo; cited from earlier work.
Where [15] appears, read: rat, intraperitoneal, 1 hour food intake, Table 2, read-out: Activity LOG (IC50), reduction of food intake (converted).
[16] abbreviates: rat, intraperitoneal, 1 hour food intake, Table 3, read-out: Log (1/IC50) Measured (converted).
Setting [17] is: Rattus norvegicus, 1 h, read-out: Activity LOG (IC50), reduction of food intake.
Setting [18] is: Rattus norvegicus, 1 h, read-out: Log (1/IC50) Measured.

“Also recorded” adds a separate entry of the source. Structures can show the parent of a compound that is named as a salt. Where two headings read alike, the source gives them in different places.

Turning to `O=C(O)C1Cc2c([nH]c3ccccc23)CN1` (racemic) [Compound 14, (±) 3-carboxyl-1,2,3,4-tetrahydro-β-carboline], the results for the ED50 in data set [1] (setting [15]) and in data set [1] (setting [16]) were 0.0331 µmol/kg and 30.2 µmol/kg, respectively. The “feeding depression / dose-response behavior” value in data set [2] is on record as “will not depress feeding behavior over a comparatively large feeding range; also recorded: moderate feeding depression over a broad dosage range”.
On to `COC(=O)C1Cc2c([nH]c3ccccc23)CN1` (stereo not drawn) [3-carbomethoxy-1,2,3,4-tetrahydro-β-carboline], for which the “binding affinity to benzodiazepine receptors” value in the data set with benzodiazepine receptors was “very low affinity”.
As to `c1ccc2c3c([nH]c2c1)CNCC3` [Compound 1, 1,2,3,4-tetrahydro-β-carboline], the “competition for brain imipramine binding sites” value in data set [3] is “low affinity”. In [4], the “competition for brain 5-HT binding sites” value was “low affinity”. In addition, the “inhibition of 5-HT oxidative deamination” value in data set [5] is “weakly inhibits”. Besides, the “competition for brain tryptamine binding sites” value in data set [6] is recorded as “low affinity”. Besides, the ED50 in data set [1] (setting [17]) was 0.0145 µmol/kg. In addition, the ED50 in [1] (setting [18]) is 69.2 µmol/kg. Besides, in the data set on 5-HT uptake, the “inhibition of 5-HT uptake” value is reported as “weakly inhibits”. In addition, the deaths in [7] (49 mg/Kg/day or greater) is on record as 6 out of the 24. The “treatment day by which food consumption returns to normal (tolerance)” value in data set [7] (daily oral, in excess of 49 mg/Kg) is “twelfth”. In [7] (daily oral, less than 30 mg/Kg), the “appetite, smaller daily doses” value was “do not significantly alter appetite”. Further, the “food intake, daily oral administration” value in [7] (in excess of 49 mg/Kg daily, after two consecutive days) is “significant reductions in food intake”. The “competition for brain spiperone binding sites” value in data set [8] is reported as “low affinity”. In addition, the “feeding depression / dose-response behavior” value in data set [2] is listed as “little feeding depression at low dosage, but relatively complete feeding depression at higher dosage”. Moreover, the “depolarization-induced 5 HT efflux” value in the data set on 5 HT efflux is reported as “enhances”. In addition, the “behavioral effects, intraventricular” value in [9] was “reduce motor activity, induce apparent anxiety, and increase voluntary ethanol consumption”. Moreover, in [10], the plasma corticosterone entry is “elevated”, the plasma prolactin levels result is listed as “dose-dependent elevation” and the “serum luteinizing hormone levels” value is recorded as “decreased”. In [11], the “dose eliciting significant hypothermia” value is ≥ 6.25 mg/kg. Moreover, the “behavioral syndrome at high doses” value in data set [12] (high doses) is “hyperactivity, forepaw treating, body weaving, and circling”. Further, the behavioral effects result in [12] (parenteral) was “suppresses locomotion, exploratory activity, and conflict behavior, impairs performance on operantly conditioned learning and memory tasks, reduces seizure susceptibility, prolongs barbiturate sedation, and antagonizes specific drug induced stereotypic behavior”.
Consider `COc1ccc2[nH]c3c(c2c1)CCNC3` [Compound 2, 6-methoxy-1,2,3,4-tetrahydro-β-carboline], for which the ED50 in [1] (setting [17]) is 0.0162 µmol/kg; in data set [1] (setting [18]), 61.7 µmol/kg.
The matching figures for `Fc1ccc2[nH]c3c(c2c1)CCNC3` [Compound 4, 6-fluoro-1,2,3,4 tetrahydro-β-carboline hydrochloride]: 0.0257 µmol/kg and 38.9 µmol/kg.
In the case of `Fc1ccc2c3c([nH]c2c1)CNCC3` [Compound 5, 7-fluoro-1,2,3,4-tetrahydro-β-carboline hydrochloride], the ED50 in data set [1] (setting [17]) was 0.0214 µmol/kg; in data set [1] (setting [18]), 46.8 µmol/kg.
Turning to `CC1NCCc2c1[nH]c1ccccc21` (stereo not shown) [Compound 7], the ED50 in data set [1] (setting [18]) was 100 µmol/kg.
`Clc1ccc2[nH]c3c(c2c1)CCNC3` [Compound 8, 6-chloro-1,2,3,4-tetrahydro-β-carboline hydrochloride]: the ED50 is 0.0347 µmol/kg in data set [1] (setting [17]) and 28.8 µmol/kg in [1] (setting [18]).
For the compound `Cc1cccc2c3c([nH]c12)CNCC3` [Compound 10, 8-methyl-1,2,3,4-tetrahydro-β-carboline hydrochloride], the ED50 in data set [1] (setting [15]) was 0.0162 µmol/kg; in data set [1] (setting [16]), 61.7 µmol/kg.
Regarding `Cc1ccc2[nH]c3c(c2c1)CCNC3` [Compound 12], the ED50 in data set [1] (setting [16]) is 30.9 µmol/kg.
Still for that read-out and setting: the figure for `CCC1Cc2c([nH]c3ccccc23)CN1` (stereo not shown) [Compound 13] is 77.6 µmol/kg; for `O=C(O)C1Cc2c([nH]c3ccc(O)cc23)CN1` (stereo not shown) [Compound 15] it is 91.2 µmol/kg.
As to `CC(=O)N1CCc2c([nH]c3ccccc23)C1` [Compound 16, 2-acetyl-1,2,3,4-tetrahydro-β-carboline], the ED50 is 0.0162 µmol/kg in data set [1] (setting [15]) and 61.7 µmol/kg in [1] (setting [16]). In addition, the “feeding depression / dose-response behavior” value in data set [2] is on record as “The same behavior was observed”.
For `Cc1cccc2[nH]c3c(c12)CCNC3` [Compound 17], the ED50 in data set [1] (setting [16]) is 30.2 µmol/kg.
Still for that read-out and setting: the result for `O=Cn1c2c(c3ccccc31)CCNC2` [Compound 18] reads 91.2 µmol/kg.
For `c1ccc(Cn2c3c(c4ccccc42)CCNC3)cc1` [Compound 19, 9 benzyl-1,2,3,4-tetrahydro-β-carboline hydro-chloride], the ED50 in data set [1] (setting [15]) was 0.0447 µmol/kg; in data set [1] (setting [16]) it was 22.4 µmol/kg.
The corresponding values for `CCn1c2c(c3ccccc31)CCNC2` [Compound 20, 9-ethyl-1,2,3,4-tetrahydro-β-carboline hydrochloride] are 0.0309 µmol/kg and 32.4 µmol/kg.
The corresponding values for `CCCCCn1c2c(c3cc(C)ccc31)CCNC2` [Compound 21, 6-Methyl-9-(n-pentyl)-1,2,3,4-tetrahydro-β-carboline hydrochloride] are 0.0589 µmol/kg and 17 µmol/kg.
The matching figures for `CCCCCn1c2c(c3ccccc31)CCNC2` [Compound 23, 9-(n-pentyl)-1,2,3,4-tetrahydro-β-carboline hydrochloride]: 0.055 µmol/kg and 18.2 µmol/kg.
On to `CC(=O)N1CCc2c(n(Cc3ccccc3)c3ccccc23)C1` [Compound 27, 2 acetyl-9 benzyl-1,2,3,4-tetrahydro-β-carboline], for which the ED50 in data set [1] (setting [15]) was 0.0339 µmol/kg; in [1] (setting [16]), 29.5 µmol/kg.
Consider `CCOC(=O)c1ncc2[nH]c3ccc(OCc4ccccc4)cc3c2c1COC` [ethyl 6-benzyloxy-4-meth-oxymethyl-β-carboline-3-carboxylate], for which the “effect on feeding (hyperphagic / anorectic)” value in data set [13] is “hyperphagic”.
As to `CCOC(=O)c1ncc2[nH]c3cccc(OCc4ccccc4)c3c2c1COC` [ethyl-5-benzyloxy-4-methoxymethyl β-carboline-3-carboxylate], the “effect on feeding (hyperphagic / anorectic)” value in data set [13] is listed as “hyperphagic”.
For `CCNC(C)Cc1cccc(C(F)(F)F)c1` (stereo not shown) [fenfluramine], in data set [14], the clinical efficacy result was “inadequate clinical efficacy”; the “patient complaints (side effects)” value is “drowsiness and headache”.
With `CNC(=O)c1cc2c(cn1)[nH]c1ccccc12` [β-carboline-3-carboxylic acid methyl amide], the “food consumption by partially sated rats” value in data set [13] (10.0 mg/Kg, intraperitoneal) is reported as 30 % of control. For the same compound, the “effect on feeding (hyperphagic / anorectic)” value in [13] was “anorectic”.
Turning to “ethyl -isopropoxy-4-methyl-β-carboline-3-carboxylate”, the “effect on feeding (hyperphagic / anorectic)” value in data set [13] is reported as “hyperphagic”.
